What was measured:
Assay type in all cases: in vivo
[1] = system: heartshape false pickerelweed (Monochoria vaginalis (Burm.f.) C.Presl); test: Test Example 1: herbicidal effect by soil application to paddy field; settings: paddy field soil application; active ingredient 1,000 g per 1 hectare; wettable powder added dropwise to water surface the day after sowing; examined on the 21st day after application
Method in brief: (§1)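 Plants were sown in flooded (3 cm) paddy soil and evaluated for herbicidal effect 21 days after soil application in a greenhouse.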

[2] = system: early watergrass (Echinochloa oryzicola Vasing); test: as above; settings: paddy field soil application; active ingredient 1,000 g per 1 hectare; wettable powder added dropwise to water surface the day after sowing; examined on the 21st day after application
Method in brief: as §1

[3] = system: Japanese bulrush (Scirpus juncoides Roxb.); test: as above; settings: paddy field soil application; active ingredient 1,000 g per 1 hectare; wettable powder added dropwise to water surface the day after sowing; examined on the 21st day after application
Method in brief: as §1

[4] = system: barnyardgrass (Echinochloa crus-galli (L.) P. Beauv. var. crus-galli); test: Test Example 2: herbicidal effect by soil application to upland field; settings: soil surface spray, upland field soil, 1,000 g active ingredient per hectare, 21st day after application
Method in brief: (§2)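 A standard visual rating of herbicidal effect, made 21 days after treatment, gives the value. Treatment consisted of a uniform spray of water-diluted wettable powder on the soil covering newly sown seeds, equivalent to 1,000 g active ingredient and 1,000 liters per hectare.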

[5] = system: green foxtail (Setaria viridis (L.) P. Beauv.); test: as above; settings: soil surface spray, upland field soil, 1,000 g active ingredient per hectare, 21st day after application
Method in brief: as §2

[6] = system: velvetleaf (Abutilon theophrasti medicus); test: as above; settings: soil surface spray, upland field soil, 1,000 g active ingredient per hectare, 21st day after application
Method in brief: as §2

[7] = system: slender amaranth (Amaranthus viridis L.); test: as above; settings: soil surface spray, upland field soil, 1,000 g active ingredient per hectare, 21st day after application
Method in brief: as §2

[8] = system: barnyardgrass (Echinochloa crus-galli (L.) P. Beauv. var. crus-galli); test: Test Example 3: herbicidal effect by application to upland field (foliage treatment); settings: foliage treatment, 1,000 g active ingredient per 1 hectare, 14th day after application, greenhouse
Method in brief: (§3)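 Post-emergence spray at 1,000 g AI/ha of wettable powder in water (1,000 L/ha), onto seedlings grown 2 weeks in greenhouse field-soil pots. Graded day 14.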

[9] = system: green foxtail (Setaria viridis (L.) P. Beauv.); test: as above; settings: foliage treatment, 1,000 g active ingredient per 1 hectare, 14th day after application, greenhouse
Method in brief: as §3

[10] = system: velvetleaf (Abutilon theophrasti medicus); test: as above; settings: foliage treatment, 1,000 g active ingredient per 1 hectare, 14th day after application, greenhouse
Method in brief: as §3

[11] = system: slender amaranth (Amaranthus viridis L.); test: as above; settings: foliage treatment, 1,000 g active ingredient per 1 hectare, 14th day after application, greenhouse
Method in brief: as §3

| Compound | herbicidal effect, Monochoria vaginalis (Burm. f.) C. Presl [1] | herbicidal effect, Echinochloa oryzicola Vasing [2] | herbicidal effect, Scirpus juncoides Roxb. [3] | herbicidal effect (index), Barnyardgrass [4] | herbicidal effect (index), Green Foxtail [5] | herbicidal effect (index), Velvetleaf [6] | herbicidal effect (index), Slender Amaranth [7] | herbicidal effect, Barnyardgrass [8] | herbicidal effect, Green Foxtail [9] | herbicidal effect, Velvetleaf [10] | herbicidal effect, Slender Amaranth [11] |
| --- | --- | --- | --- | --- | --- | --- | --- | --- | --- | --- | --- |
| Cn1ncc(C(=O)c2ccc(C(F)(F)F)n(-c3cc(F)cc(F)c3)c2=O)c1O [IV-80] | 5 (90% or more of herbicidal effect and crop phytotoxicity) | 5 (90% or more of herbicidal effect and crop phytotoxicity) | 5 (90% or more of herbicidal effect and crop phytotoxicity) | 5 (90% or more of herbicidal effect and crop phytotoxicity) | 5 (90% or more of herbicidal effect and crop phytotoxicity) | 5 (90% or more of herbicidal effect and crop phytotoxicity) | 5 (90% or more of herbicidal effect and crop phytotoxicity) | 5 (90% or more of herbicidal effect and crop phytotoxicity) | 5 (90% or more of herbicidal effect and crop phytotoxicity) | 5 (90% or more of herbicidal effect and crop phytotoxicity) | 5 (90% or more of herbicidal effect and crop phytotoxicity) |
| Cc1nn(C)c(O)c1C(=O)c1ccc(C(F)(F)F)n(-c2cc(F)cc(F)c2)c1=O [IV-81] | 5 (90% or more of herbicidal effect and crop phytotoxicity) | 5 (90% or more of herbicidal effect and crop phytotoxicity) | 3 (50 to less than 70% of herbicidal effect and crop phytotoxicity) | 5 (90% or more of herbicidal effect and crop phytotoxicity) | 5 (90% or more of herbicidal effect and crop phytotoxicity) | 5 (90% or more of herbicidal effect and crop phytotoxicity) | 5 (90% or more of herbicidal effect and crop phytotoxicity) | 4 (70 to less than 90% of herbicidal effect and crop phytotoxicity) | 4 (70 to less than 90% of herbicidal effect and crop phytotoxicity) | 5 (90% or more of herbicidal effect and crop phytotoxicity) | 5 (90% or more of herbicidal effect and crop phytotoxicity) |
| Cn1ncc(C(=O)c2ccc(C(F)(F)F)n(-c3cc(F)ccc3F)c2=O)c1O [IV-83] | 5 (90% or more of herbicidal effect and crop phytotoxicity) | 5 (90% or more of herbicidal effect and crop phytotoxicity) | 5 (90% or more of herbicidal effect and crop phytotoxicity) | 5 (90% or more of herbicidal effect and crop phytotoxicity) | 5 (90% or more of herbicidal effect and crop phytotoxicity) | 5 (90% or more of herbicidal effect and crop phytotoxicity) | 5 (90% or more of herbicidal effect and crop phytotoxicity) | 5 (90% or more of herbicidal effect and crop phytotoxicity) | 5 (90% or more of herbicidal effect and crop phytotoxicity) | 5 (90% or more of herbicidal effect and crop phytotoxicity) | 5 (90% or more of herbicidal effect and crop phytotoxicity) |
| CCCS(=O)(=O)Oc1c(C(=O)c2ccc(C(F)(F)F)n(-c3cc(F)ccc3F)c2=O)cnn1C [IV-84] | 5 (90% or more of herbicidal effect and crop phytotoxicity) | 5 (90% or more of herbicidal effect and crop phytotoxicity) | 5 (90% or more of herbicidal effect and crop phytotoxicity) | 5 (90% or more of herbicidal effect and crop phytotoxicity) | 5 (90% or more of herbicidal effect and crop phytotoxicity) | 5 (90% or more of herbicidal effect and crop phytotoxicity) | 5 (90% or more of herbicidal effect and crop phytotoxicity) | 4 (70 to less than 90% of herbicidal effect and crop phytotoxicity) | 3 (50 to less than 70% of herbicidal effect and crop phytotoxicity) | 5 (90% or more of herbicidal effect and crop phytotoxicity) | 4 (70 to less than 90% of herbicidal effect and crop phytotoxicity) |
| Cn1ncc(C(=O)c2ccc(C(F)(F)F)n(-c3ccc(F)c(F)c3)c2=O)c1O [IV-85] | 5 (90% or more of herbicidal effect and crop phytotoxicity) | 5 (90% or more of herbicidal effect and crop phytotoxicity) | 5 (90% or more of herbicidal effect and crop phytotoxicity) | 5 (90% or more of herbicidal effect and crop phytotoxicity) | 5 (90% or more of herbicidal effect and crop phytotoxicity) | 5 (90% or more of herbicidal effect and crop phytotoxicity) | 5 (90% or more of herbicidal effect and crop phytotoxicity) | 5 (90% or more of herbicidal effect and crop phytotoxicity) | 5 (90% or more of herbicidal effect and crop phytotoxicity) | 5 (90% or more of herbicidal effect and crop phytotoxicity) | 5 (90% or more of herbicidal effect and crop phytotoxicity) |
| Cc1nn(C)c(O)c1C(=O)c1ccc(C(F)(F)F)n(-c2ccc(F)c(F)c2)c1=O [IV-86] | 5 (90% or more of herbicidal effect and crop phytotoxicity) | 5 (90% or more of herbicidal effect and crop phytotoxicity) | 4 (70 to less than 90% of herbicidal effect and crop phytotoxicity) | 5 (90% or more of herbicidal effect and crop phytotoxicity) | 5 (90% or more of herbicidal effect and crop phytotoxicity) | 5 (90% or more of herbicidal effect and crop phytotoxicity) | 5 (90% or more of herbicidal effect and crop phytotoxicity) | 5 (90% or more of herbicidal effect and crop phytotoxicity) | 4 (70 to less than 90% of herbicidal effect and crop phytotoxicity) | 5 (90% or more of herbicidal effect and crop phytotoxicity) | 5 (90% or more of herbicidal effect and crop phytotoxicity) |
| COc1cc(-n2c(C(F)(F)F)ccc(C(=O)c3cnn(C)c3O)c2=O)ccc1Cl [IV-90] | 5 (90% or more of herbicidal effect and crop phytotoxicity) | 5 (90% or more of herbicidal effect and crop phytotoxicity) | 5 (90% or more of herbicidal effect and crop phytotoxicity) | 5 (90% or more of herbicidal effect and crop phytotoxicity) | 3 (50 to less than 70% of herbicidal effect and crop phytotoxicity) | 5 (90% or more of herbicidal effect and crop phytotoxicity) | 5 (90% or more of herbicidal effect and crop phytotoxicity) | 5 (90% or more of herbicidal effect and crop phytotoxicity) | 5 (90% or more of herbicidal effect and crop phytotoxicity) | 5 (90% or more of herbicidal effect and crop phytotoxicity) | 5 (90% or more of herbicidal effect and crop phytotoxicity) |
| COc1ccc(-n2c(C(F)(F)F)ccc(C(=O)c3cnn(C)c3O)c2=O)cc1F [IV-92] | 5 (90% or more of herbicidal effect and crop phytotoxicity) | 5 (90% or more of herbicidal effect and crop phytotoxicity) | 5 (90% or more of herbicidal effect and crop phytotoxicity) | 5 (90% or more of herbicidal effect and crop phytotoxicity) | 5 (90% or more of herbicidal effect and crop phytotoxicity) | 5 (90% or more of herbicidal effect and crop phytotoxicity) | 5 (90% or more of herbicidal effect and crop phytotoxicity) | 4 (70 to less than 90% of herbicidal effect and crop phytotoxicity) | 4 (70 to less than 90% of herbicidal effect and crop phytotoxicity) | 4 (70 to less than 90% of herbicidal effect and crop phytotoxicity) | 5 (90% or more of herbicidal effect and crop phytotoxicity) |

— patent US8076487B2, “Pyridone derivative and herbicide” (Kumiai Chemical Industry Co., Ltd., priority 2006, dated 2011)
